One series has as its system HepG2 cells. The experiment in a line: Gene expression of HepG2 cells (quantitative PCR). Format: cell-based. Details: key to LSS gene expression / MVK gene expression / SREBP1 gene expression / SREBP2 gene expression / SCAP gene expression / SCD gene expression / MVD gene expression / ACACA gene expression / ACACB gene expression / ACLY gene expression / ACSS1 gene expression / ACSS2 gene expression / ELOVL6 gene expression / FASN gene expression / HMGCR gene expression: relative expression vs mock/vehicle (ΔΔCT, β-actin normalized). The conditions noted are these: 500 nM, 48 hrs. As to the method:
Gene Expression: The effect of selected compounds described herein on the gene expression of HepG2 cells was evaluated. HepG2 cells (P2) were seeded in 24 well plate (80,000 cells/well) for RNA extraction and in a 96 well plate (10,000 cells/well) for Cell Titer Glow (CTG). The media used was DMEM and contained 10% FBS. Each compound was evaluated at […] for 48 hours. Two biological replicates per experimental group were evaluated for RNA. For gene analysis, RNA was harvested with RNEasy kit and 20-100 ng used to synthesize cDNA with random primers. Quantitative PCR was performed on 1 pg to 100 ng cDNA for the following genes: ACACA, ACLY, FASN, LSS, PNPLA3. Gene expression levels were normalized with housekeeping gene, β-Actin, and relative expression levels determined using ΔΔCT method comparing treated to mock or vehicle treated cells as a baseline. “Total” gene expression refers to the average of the values of the 5 genes listed above.
The effect of Compound Z-725 on expression of the genes ACACA, ACACB, ACLY, ACSS1, ACSS2, ELOVL6, FASN, HMGCR, LSS, MVK, PNPLA3, SREBP1, SREBP2, SCAP, SCD, and MVD was evaluated, following the procedure described in Example 52.

The nature of series [1]: Log D by octanol/aqueous buffer partitioning. Format: physicochemical. The conditions noted are these: pH 7.4, 1-octanol/buffer. As to the method: The Log D of selected compounds was evaluated by octanol/aqueous buffer partitioning. 500 μL of organic phase (1-octanol) was added to each well of a 2 mL deep well plate, followed by 500 μL of buffer and 15 μL of test compound in DMSO (0.15 mM). The plate was vortexed for 10 seconds and incubated at room temperature for 1 hr on a plate shaker at 200 rpm. After incubation, the samples were allowed to equilibrate for 20 min and then centrifuged at 4000 rpm for 30 min for complete phase separation. The distribution of test compound in buffer and octanol phase was analyzed by HPLC-UV. Log D=Log (Area of Octanol/Area of Buffer).

Series [2] is described as follows: In vivo pharmacokinetic properties in rats (IV and PO). Details: species or system male Sprague Dawley rats. Put shortly:
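Male Sprague Dawley rats received 2.00 mg/kg IV via the tail vein, with plasma sampled from a cannulated jugular vein from 0.083 to 24 h. Oral dosing was 10 mg/kg in rats or C57BL/6J mice, sampled at 0.25-24 h by jugular cannula (rats) or retro-orbital plexus (mice).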

Usually LogD stands for lipophilicity at a set pH, counting ionised and neutral species.

Consider `CC(C)(C)c1cc(-c2cncc(-c3ccc(C(=O)N4CCC(O)CC4)cc3Cl)c2)ccn1` [Compound Z-725], for which, in the series on HepG2 cells, the ACACA gene expression was 0.4399, the ACACB gene expression is 0.5472, the ACLY gene expression is listed as 0.3505 and the ACSS1 gene expression came out at 0.2838. In the series with HepG2 cells, the ACSS2 gene expression was 0.4792, the ELOVL6 gene expression came to 0.4432, the FASN gene expression came to 0.2957 and the HMGCR gene expression was determined as 0.09282. For the same molecule, in the series with HepG2 cells, the LSS gene expression is on record as 0.2412, the MVD gene expression was found to be 0.1984, the MVK gene expression is given as 0.05926 and the PNPLA3 gene expression was 0.09989. In the series on HepG2 cells, this molecule came in with an SCAP gene expression of 1.312, an SCD gene expression of 0.2009, an SREBP1 gene expression of 0.5489 and an SREBP2 gene expression of 0.786. This molecule also yielded a LogD in series [1] of 3.56. In series [2] (IV, 2 mg/kg), the “Intravenous Delivery (IV) CL” value came to 30.1 mL/min/kg, the “Intravenous Delivery (IV) T1/2” value is 1.53 h and the “Intravenous Delivery (IV) Vd” value is 4.02 L/kg. The “% F (Bioavailability of oral delivery)” value in series [2] (PO 10 mg/kg vs IV 2 mg/kg) is 24%. In series [2] (PO, 10 mg/kg), the “Oral Administration (PO) AUC0-last” value turned out to be 1307, the “Oral Administration (PO) T1/2” value was found to be 5.1 h and the “Oral Administration (PO) Tmax” value is recorded as 1.67 h.
